Laboratory results taken from US20030148462A1, “Dual inhibition of sister chromatid separation at metaphase” (President and fellows of Harvard College, priority 2001, published 2003).

Key:
[1] = biological target: T1, separase Ser1126 (Homo sapiens, UniProt Q14674); assay: Ser1126-specific in vitro kinase assays with LC-MS/MS; type: biochemical; conditions: securin/separase from unsynchronized 293T cells, 1 mM ATP
T1 construct: Full-length human separase was PCR-amplified from a human fetal thymus cDNA library; made in house; host or cells: 293T cells (cotransfected, unsynchronized)
From the text: (A) depicts FACS and Western analyses of synchronized HeLaS3 cells undergoing mitosis. (B) depicts quantification of cell cycle distribution and phosphorylation status of separase at Ser1126 for the samples shown in (A). (C) depicts a nano-scale microcapillary LC-MS/MS analysis of native separase phosphorylation state. Shown are the selected reaction, extracted-ion chromatograms corresponding to the unphosphorylated (upper trace) and phosphorylated (bottom trace) Glu1115-Lys1130 native tryptic peptide (blue and green) and heavy internal standard (brown and red). Inset: Averaged selected reaction m/z window corresponding to the y10-ion fragment of light and heavy peptides. (D) depicts […] in vitro kinase assays. Shown is the phosphorylation status of Ser1126 in percent as determined by incubation of affinity-purified securin/separase with various pure kinases in the presence of ATP (1 mM) followed by LC-MS/MS analysis. […] Top panel: Mock treatment.
For kinase assays, the securin/separase complex was isolated from unsynchronized, transfected cells and eluted with TEV protease without prior incubation in Xenopus extracts. […] Reactions with polo and auroraA (a gift from E. A. Nigg) were carried out as described (Bischoff et al. (1998) EMBO J 17:3052; Descombes et al. (1998) EMBO J 17:1328). All kinase assays were done in the presence of 1 mM ATP.
As a substrate, overexpressed securin/separase purified from transfected, unsynchronized 293T cells was used.
Coomassie stained securin and separase bands were digested in-gel (Shevchenko et al. (1996) Anal. Chem. 68:850). Extracted peptides were separated by nano-scale microcapillary high performance liquid chromatography (HPLC) as described (Gygi et al. (1999) Mol. Cell Biol. 19:1720). Eluting peptides were ionized by electrospray ionization and analyzed by an LCQ-DECA ion trap mass spectrometer (ThermoFinnigan). Peptide ions reaching a certain threshold were automatically selected for sequence analysis by tandem mass spectrometry. Peptide sequence was determined by data-searching against the non redundant human protein database using the Sequest algorithm (Eng et al. (1994) J. Am. Soc. Mass Spectrom. 5:1579).

[2] = tested on: human metaphase chromosomes; assay: Sister chromatid separation of human metaphase chromosomes in Xenopus extracts; conditions: for Separation of sister chromatids: high concentrations of Δ90 (400 nm), human chromosomes in Xenopus extract
Description: CSF extracts were prepared as described (Murray (1991) Methods Cell Biol. 36:581). For sister chromatid separation assays two sources of chromosomes were used, Xenopus sperm nuclei and isolated human metaphase chromosomes. Xenopus sperm nuclei were prepared as described by Philpott et al. ((1991) Cell 65:569). When they were used, the protocol developed by Murray and colleagues was followed (Holloway et al. (1993) Cell 73:1393) with the exception that Δ90 was usually added later, about 50 minutes after CSF. Re-isolation of Xenopus chromosomes was done according to Funabiki and Murray ((2000) Cell 102:411). When human chromosomes were used, the KCl concentration was lowered to 70 mM. Δ90 and isolated securin/separase (0.1 volumes) were added 20 minutes after addition of human chromosomes. After additional 20 minutes at 20° C., Ca^2+ (0.6 mM) was added. Chromosomes were re-isolated from extracts 50 minutes thereafter. Analysis by immunofluorescence microscopy was performed as described (Wood et al. (1997) Cell 91:357). The percentage of separated chromosomes was calculated according to the following equation: % separation=(number of single chromatids/2)/[(number of single chromatids/2)+number of unseparated chromosomes].
It was next determined whether the PM-2 mutant would override the inhibition not only of cohesin cleavage but also of sister chromatid separation in high-Δ90 extracts. Since the biochemical experiments utilized human separase, the existing assay was modified to examine the separation of human metaphase chromosomes in Xenopus extracts. […] In the presence of wild type separase (supplied as purified securin/separase complexes) and high concentrations of Δ90 (400 nm), only 2.7% of the chromosomes separated (FIG. 5A, row 2). […] In contrast, PM-2 (Ser 1126) led to maximal separation of sister chromatids (68%) under the same conditions (FIG. 5A, row 5). Similar results were obtained with PM-2/4 and PM-2^Asp; they caused 68% and 66% separation, respectively (FIG. 5A, rows 4 and 7). A Western blot for separase was performed to assure that similar amounts of the various separases had been used in the experiment (FIG. 5B).

[3] = tested on: cohesin^hSCC1; assay: In vitro separase activity assay (self-cleavage and cohesin hSCC1 cleavage) after low- or high-Δ90 extract; type: biochemical, human; conditions: for Separase self-cleavage and cohesin hSCC1 cleavage after low- versus high-Δ90 extract: low or high CDC2 activity extract
From the text: To address whether high CDC2 activity blocked the activity of separase, an in vitro separase activity assay was developed. Plasmids coding for human securin and tagged human separase were transfected into 293T cells as follows.
Human cohesin^hSCC1 was isolated from the a human fetal thymus cDNA library using the following primers: 5′-[…]-3′ (SEQ ID NO:8) and 5′-[…]-3′ (SEQ ID NO:9). Both separase and securin were subcloned into the multi-purpose expression vector pCS2 (various versions). The resulting plasmids were utilized for transfection into 293T cells and for in vitro expression in TNT™ reticulocyte lysate (Promega). For immunoprecipitation of separase, two types of N-terminal tags were fused to the amino terminus of separase, three HA tags (FIG. 2A) or two IgG binding domains of protein A followed by four TEV-protease cleavage sequences (ZZ-TEV4-tag; FIGS. 2B, 4B, 5, 6B to E, and 7). Both versions of separase gave essentially the same results. Site directed mutagenesis was performed using either the QuickChange kit (Stratagene) or the GeneEditor system (Promega). All mutations were confirmed by DNA sequencing of manipulated regions.
To obtain securin/separase complexes, 293T cells were cotransfected with separase and securin expression plasmids using a calcium phosphate based method and subsequently synchronized as described (Fang et al. (1998) Mol. Cell 2:163). Two days after transfection, the nocodazole-arrested cells were lysed in 20 mM Tris/HCl pH 7.7, 100 mM NaCl, 1 mM NaF, 20 mM β-glycerophosphate, 5 mM MgCl2, 0.1% Triton X100, 1 μM microcystin-LR. After ultra-centrifugation at 100,000 g, the supernatant was mixed with anti-HA agarose (3F10, Roche) or IgG-sepharose (Amersham), depending on the tag of separase. For a 10 cm dish of confluent, transfected cells (corresponding to roughly 100 μl cell pellet), 20 μl of beads were used. After rotation overnight at 4° C. the beads were washed twice with CSF-XB (Murray (1991) Methods Cell Biol. 36:581) and then incubated with various Xenopus egg extracts. To prepare low- or high-Δ90 extracts, CSF extracts were supplemented with various concentrations of Δ90. Fifteen minutes thereafter, Ca^2+ was added (0.6 mM) and the extracts were further incubated for 15 minutes before adding them to the securin/separase beads. After 1 hour, the beads were washed twice with CSF-XB, once with 30 mM Hepes/KOH pH 7.7, 30% glycerol, 25 mM NaF, 25 mM KCl, 5 mM MgCl2, 1.5 mM ATP, 1 mM EGTA, and eluted with HA peptide (1 mg/ml) or TEV-protease (2 mg/ml) in 20 to 50 μl. Two μl of separase were combined with 2 μl of in vitro translated ^35S-cohesin^hSCC1 and incubated for 1 hour at 37° C. Alternatively, 2 μl of isolated metaphase chromosomes (8.7 μg DNA per μl) were used as a substrate.
Each mutant was incubated in either low- (odd numbered lanes) or high-Δ90 extract (even numbered lanes) before analyzing separase self-cleavage by immuno-blot (top panels) and cohesin^hSCC1 cleavage by autoradiography (middle and lower panels).

[4] = tested on: sister chromatid separation and segregation in Xenopus egg extracts; assay: Anaphase and mitotic exit in CSF-arrested Xenopus egg extracts with sperm nuclei; conditions: added 10 minutes before Ca2+
[5] = tested on: separase; assay: Re-inhibition of pre-activated separase by recombinant securin (cohesin hSCC1 cleavage); type: biochemical, human; conditions: equal amounts of separase
Description: FIGS. 7A-7C depict the independent inhibition of separase activity by phosphorylation of separase and by binding of securin. (A) depicts a Western blot (upper panel) and cohesin^hSCC1 cleavage activity using isolated chromosomes as substrate (lower panel). Lane 2: Consecutive treatment of separase with high-Δ90 extract twice. (B) depicts separase that had been pre-activated in low-Δ90 extract that was eluted and incubated with recombinant securin (lanes 2 and 3) or reference buffer (lane 1) for one hour on ice. Subsequently, its cleavage activity towards in vitro translated ^35S-cohesin^hSCC1 was tested (upper panel). The separase concentration in each reaction was 4 nM, as estimated by Coomassie staining. To compare wild type separase with PM-2/4 mutant separase in its ability to bind securin the same experiment was repeated with PM-2/4 (lower panel). Roughly equal separase concentrations in both cases were assured by comparative immunoblotting (see FIG. 4B, lanes 15 and 17). (C) depicts a model for the dual inhibition of separase in metaphase and its activation at anaphase onset. PPase denotes an unknown protein phosphatase that is proposed to act on phosphorylated separase.
To determine whether securin can inhibit separase independent of the phosphorylation state of separase, and whether separase that has already been activated and has therefore cleaved itself be re-inhibited by either of the two inhibitory mechanisms, active separase was generated by treating a securin/separase complex with a low-Δ90 extract (L; FIG. 7) to degrade securin and dephosphorylate separase. […] Active separase on beads was then incubated with either recombinant securin or a high-Δ90 extract and assayed for its ability to cleave cohesin^hSCC1. […]

[6] = tested on: T2, recombinant securin
T2 sequence (O95997 2-202, species assumed, looked up): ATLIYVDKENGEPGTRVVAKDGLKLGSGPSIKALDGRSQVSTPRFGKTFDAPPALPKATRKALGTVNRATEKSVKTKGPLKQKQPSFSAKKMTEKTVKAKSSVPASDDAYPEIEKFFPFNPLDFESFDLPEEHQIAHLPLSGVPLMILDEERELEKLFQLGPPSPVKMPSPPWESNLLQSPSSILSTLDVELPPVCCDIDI

T1 sequence (Q14674 whole entry): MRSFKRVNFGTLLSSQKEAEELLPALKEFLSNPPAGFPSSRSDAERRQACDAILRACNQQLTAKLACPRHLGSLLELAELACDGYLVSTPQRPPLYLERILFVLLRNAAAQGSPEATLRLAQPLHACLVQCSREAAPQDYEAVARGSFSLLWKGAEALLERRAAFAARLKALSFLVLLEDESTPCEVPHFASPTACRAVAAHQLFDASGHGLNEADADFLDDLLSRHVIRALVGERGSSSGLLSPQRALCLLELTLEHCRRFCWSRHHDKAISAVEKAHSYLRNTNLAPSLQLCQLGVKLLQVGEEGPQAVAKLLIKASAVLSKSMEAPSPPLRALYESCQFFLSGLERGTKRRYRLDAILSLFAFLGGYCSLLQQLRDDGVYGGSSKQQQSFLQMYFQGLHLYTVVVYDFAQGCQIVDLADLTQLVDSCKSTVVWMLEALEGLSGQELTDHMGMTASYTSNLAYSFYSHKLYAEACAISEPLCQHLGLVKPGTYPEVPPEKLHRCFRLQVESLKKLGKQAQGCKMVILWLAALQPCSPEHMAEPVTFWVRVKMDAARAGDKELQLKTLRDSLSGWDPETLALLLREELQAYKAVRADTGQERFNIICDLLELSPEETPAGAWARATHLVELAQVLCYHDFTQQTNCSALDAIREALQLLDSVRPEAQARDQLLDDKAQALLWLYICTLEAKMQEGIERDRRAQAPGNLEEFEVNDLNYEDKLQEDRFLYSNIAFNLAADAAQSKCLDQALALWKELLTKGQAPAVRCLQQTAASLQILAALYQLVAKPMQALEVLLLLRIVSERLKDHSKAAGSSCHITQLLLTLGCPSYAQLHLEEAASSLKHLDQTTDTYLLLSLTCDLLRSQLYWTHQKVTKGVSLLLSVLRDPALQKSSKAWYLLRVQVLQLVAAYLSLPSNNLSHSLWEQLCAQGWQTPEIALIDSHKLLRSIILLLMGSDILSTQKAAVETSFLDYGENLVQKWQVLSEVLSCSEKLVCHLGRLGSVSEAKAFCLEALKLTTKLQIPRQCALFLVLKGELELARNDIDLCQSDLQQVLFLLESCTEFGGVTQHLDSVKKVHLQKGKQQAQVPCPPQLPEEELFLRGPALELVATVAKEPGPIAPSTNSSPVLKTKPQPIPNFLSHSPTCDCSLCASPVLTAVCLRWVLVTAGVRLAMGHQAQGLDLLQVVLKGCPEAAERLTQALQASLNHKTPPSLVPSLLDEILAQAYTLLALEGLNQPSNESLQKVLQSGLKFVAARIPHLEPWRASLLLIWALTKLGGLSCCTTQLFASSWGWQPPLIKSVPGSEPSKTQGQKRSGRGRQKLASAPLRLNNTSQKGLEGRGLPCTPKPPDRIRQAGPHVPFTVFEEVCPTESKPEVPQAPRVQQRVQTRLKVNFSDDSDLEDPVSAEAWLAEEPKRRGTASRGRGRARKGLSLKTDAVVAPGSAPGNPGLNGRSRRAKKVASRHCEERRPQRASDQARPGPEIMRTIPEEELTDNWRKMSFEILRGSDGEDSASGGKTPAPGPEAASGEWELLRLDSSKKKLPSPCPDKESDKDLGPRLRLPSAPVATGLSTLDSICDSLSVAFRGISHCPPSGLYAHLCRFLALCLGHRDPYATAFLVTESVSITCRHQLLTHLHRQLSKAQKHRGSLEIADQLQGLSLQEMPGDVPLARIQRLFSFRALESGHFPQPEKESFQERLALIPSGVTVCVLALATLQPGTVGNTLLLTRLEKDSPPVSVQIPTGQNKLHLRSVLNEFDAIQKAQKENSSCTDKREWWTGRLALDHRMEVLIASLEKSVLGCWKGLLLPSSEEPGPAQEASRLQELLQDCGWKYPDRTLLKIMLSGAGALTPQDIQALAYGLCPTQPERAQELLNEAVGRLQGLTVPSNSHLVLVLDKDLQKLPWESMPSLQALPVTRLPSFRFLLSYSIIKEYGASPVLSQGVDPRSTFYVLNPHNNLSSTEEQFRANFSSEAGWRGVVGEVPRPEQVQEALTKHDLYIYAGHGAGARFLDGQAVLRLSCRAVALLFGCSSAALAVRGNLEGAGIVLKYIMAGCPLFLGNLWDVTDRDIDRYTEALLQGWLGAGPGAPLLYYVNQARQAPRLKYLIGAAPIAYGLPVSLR
T1 sequence (O95997 whole entry partner): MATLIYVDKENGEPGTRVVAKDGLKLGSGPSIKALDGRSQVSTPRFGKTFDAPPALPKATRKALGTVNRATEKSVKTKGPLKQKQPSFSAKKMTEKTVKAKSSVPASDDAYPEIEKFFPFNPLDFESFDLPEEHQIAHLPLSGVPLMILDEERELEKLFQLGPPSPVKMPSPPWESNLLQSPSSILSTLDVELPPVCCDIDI

Compound	Phosphorylation of Ser1126 by kinase [1]	Separase self-cleavage and cohesin hSCC1 cleavage after low- versus high-Δ90 extract [3]	Separation of sister chromatids [2]	further results
CC[C@H](CO)Nc1nc(NCc2ccccc2)c2ncn(C(C)C)c2n1 [roscovitine]				Rescue of anaphase (sister separation and segregation) blocked in high-Δ90 extract [4]: rescued both events with high efficiency
catalytically inactive separase: mutant separase in which the catalytic cysteine residue was replaced by a serine			0.4%	Separase self-cleavage ([3]; low-Δ90 extract): not cleaved
PM-4: single site separase phospho-mutant, site 4 (Thr1346) changed to alanine		inactivated by high CDC2 activity albeit less so than wild type separase	38%	Separase activity relative to wild type after low-Δ90 extract ([3]; low-Δ90 extract): higher than that of wild type separase
wild type separase: human separase protein (SEQ ID NO:3), tagged, purified as securin/separase complex from 293T cells		efficiently at low but not at high CDC2 activity	2.7%	Inhibition of separase by securin, wild type versus mutant [5]: inhibited at the same concentration of securin
PM-2/4: separase phospho-mutant, sites 2 (Ser1126) and 4 (Thr1346) changed to alanine		no longer inhibited	68%	Maximal degree of sister chromatid separation ([2]; low-Δ90 extract plus saturating level of PM-2/4, data not shown): about 70%; Separase activity relative to wild type after low-Δ90 extract ([3]; low-Δ90 extract): higher than that of wild type separase; Inhibition of separase by securin, wild type versus mutant [5]: inhibited at the same concentration of securin
human separase phospho-mutant PM-2/4 (Ser1126 and Thr1346 changed to alanine), with N-terminal ZZ-TEV4-tag				cohesin^hSCC1 cleavage by pre-activated separase [6]: both were inhibited at the same concentration of securin

The next lines start with results.

Phosphorylation of Ser1126 by kinase [1]	Separase self-cleavage and cohesin hSCC1 cleavage after low- versus high-Δ90 extract [3]	Compound	Separation of sister chromatids [2]	further results
not at all		CaMKII: calmodulin-dependent kinase II, from New England Biolabs		
	still largely resistant to inactivation	PM-2^Asp: separase with mutation of Ser1126 to aspartate	66%	
	still largely resistant to inhibition	PM-2: single site separase phospho-mutant, site 2 (Ser1126) changed to alanine	68%	Separase activity relative to wild type after low-Δ90 extract ([3]; low-Δ90 extract): higher than that of wild type separase
not at all		polo: pure kinase, a gift from E. A. Nigg		
not at all		auroraA: pure kinase, a gift from E. A. Nigg		
efficiently phosphorylated		MAPK (ERK2): pure kinase from New England Biolabs		
